Test system: 186277-243-T-J2-PDC complex spheroid growth
Assay: Anticancer human tumor 186277-243-T-J2-PDC patient-derived colon adenocarcinoma cell line growth inhibition [AhR]
Details: for IC50: curve of first compound; for viability, T/C: stronger effect = lower value
Summary of the method: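 Agents were dosed in half-log steps down from roughly clinical Cmax, or from 10 microM where Cmax was unknown, alone and with AhR antagonists. Read-out: percent test/control growth of tumor spheroids containing HUVEC and MSC stromal cells.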

[1] = second compound 0.1 µM, first compound 0.0316 µM
[2] = second compound 0.1 µM, first compound 0.1 µM
[3] = second compound 0.1 µM, first compound 0.316 µM
[4] = second compound 0.1 µM, first compound 1 µM
[5] = second compound 0.1 µM, first compound 3.16 µM
[6] = second compound 0.1 µM, first compound 10 µM
[7] = second compound 0.316 µM, first compound 0.0316 µM
[8] = second compound 0.316 µM, first compound 0.1 µM
[9] = second compound 0.316 µM, first compound 0.316 µM
[10] = second compound 0.316 µM, first compound 1 µM
[11] = second compound 0.316 µM, first compound 3.16 µM
[12] = second compound 0.316 µM, first compound 10 µM
[13] = second compound 1 µM, first compound 0.0316 µM
[14] = second compound 1 µM, first compound 0.1 µM
[15] = second compound 1 µM, first compound 0.316 µM
[16] = second compound 1 µM, first compound 1 µM
[17] = second compound 1 µM, first compound 3.16 µM
[18] = second compound 1 µM, first compound 10 µM
[19] = second compound 3.16 µM, first compound 0.0316 µM
[20] = second compound 3.16 µM, first compound 0.1 µM
[21] = second compound 3.16 µM, first compound 0.316 µM
[22] = second compound 3.16 µM, first compound 1 µM
[23] = second compound 3.16 µM, first compound 3.16 µM
[24] = second compound 3.16 µM, first compound 10 µM
[25] = second compound 10 µM, first compound 0.0316 µM
[26] = second compound 10 µM, first compound 0.1 µM
[27] = second compound 10 µM, first compound 0.316 µM
[28] = second compound 10 µM, first compound 1 µM
[29] = second compound 10 µM, first compound 3.16 µM
[30] = second compound 10 µM, first compound 10 µM
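Also: spheroids exposed to compounds for seven days before the viability read.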
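For viability, T/C in this document: luminescent signal used as a stand-in for viable cell amount; 100% = DMSO vehicle control wells.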

Row | Structure (SMILES) | IC50 (second compound 0.1 µM) [µM] | IC50 (second compound 0.316 µM) [µM] | IC50 (second compound 1 µM) [µM] | IC50 (second compound 3.16 µM) [µM] | IC50 (second compound 10 µM) [µM] | viability, T/C [1] [%] | viability, T/C [2] [%] | viability, T/C [3] [%] | viability, T/C [4] [%] | viability, T/C [5] [%] | viability, T/C [6] [%] | viability, T/C [7] [%] | viability, T/C [8] [%] | viability, T/C [9] [%] | viability, T/C [13] [%] | viability, T/C [14] [%] | viability, T/C [19] [%] | viability, T/C [20] [%] | viability, T/C [25] [%] | viability, T/C [26] [%] | also measured
1 | COc1cc(Nc2ncc3c(n2)-c2ccc(Cl)cc2C(c2c(F)cccc2OC)=NC3)ccc1C(=O)O + CC(CO)NC(=O)c1cc(-c2ccc(Cl)cc2)nn(-c2cnn(C)c2)c1=O | < 0.0316 | < 0.0316 | < 0.0316 | < 0.0316 | < 0.0316 | 27.6 | 22.9 | 21.5 | 20.5 | 22.3 | 27.9 | 26.1 | 23.8 | 22.4 | 30.3 | 22 | 26.1 | 24.2 | 23.6 | 22.3 | viability, T/C [10]: 18.9%; viability, T/C [11]: 22.7%; viability, T/C [12]: 22.7%; viability, T/C [15]: 21.9%; viability, T/C [16]: 20.7%; viability, T/C [17]: 22.2%; viability, T/C [18]: 25%; viability, T/C [21]: 20.7%; viability, T/C [22]: 19.3%; viability, T/C [23]: 23%; viability, T/C [24]: 26%; viability, T/C [27]: 21.5%; viability, T/C [28]: 21.2%; viability, T/C [29]: 23.4%; viability, T/C [30]: 26.1%
2 | Cn1ncnc1C1c2n[nH]c(=O)c3cc(F)cc(c23)NC1c1ccc(F)cc1 (stereo not given) + CC(CO)NC(=O)c1cc(-c2ccc(Cl)cc2)nn(-c2cnn(C)c2)c1=O | > 0.1 | > 0.1 | > 0.1 | > 0.1 | > 0.1 | 89.4 | 63.8 |  |  |  |  | 83 | 64.5 |  | 79.4 | 69.3 | 76.5 | 67.7 | 61.9 | 56 | viability, T/C (second compound 0.1 µM, first compound 0.000316 µM): 103%; viability, T/C (second compound 0.1 µM, first compound 0.001 µM): 99.3%; viability, T/C (second compound 0.1 µM, first compound 0.00316 µM): 102%; viability, T/C (second compound 0.1 µM, first compound 0.01 µM): 93.5%; viability, T/C (second compound 0.316 µM, first compound 0.000316 µM): 111%; viability, T/C (second compound 0.316 µM, first compound 0.001 µM): 106%; viability, T/C (second compound 0.316 µM, first compound 0.00316 µM): 93.1%; viability, T/C (second compound 0.316 µM, first compound 0.01 µM): 96.9%; viability, T/C (second compound 1 µM, first compound 0.000316 µM): 102%; viability, T/C (second compound 1 µM, first compound 0.001 µM): 108%; viability, T/C (second compound 1 µM, first compound 0.00316 µM): 118%; viability, T/C (second compound 1 µM, first compound 0.01 µM): 94.6%; viability, T/C (second compound 3.16 µM, first compound 0.000316 µM): 92.7%; viability, T/C (second compound 3.16 µM, first compound 0.001 µM): 109%; viability, T/C (second compound 3.16 µM, first compound 0.00316 µM): 94.7%; viability, T/C (second compound 3.16 µM, first compound 0.01 µM): 86.4%; viability, T/C (second compound 10 µM, first compound 0.000316 µM): 87%; viability, T/C (second compound 10 µM, first compound 0.001 µM): 98.1%; viability, T/C (second compound 10 µM, first compound 0.00316 µM): 84.5%; viability, T/C (second compound 10 µM, first compound 0.01 µM): 72.3%
3 | NS(=O)(=O)OCC1CC(n2ccc3c(NC4CCc5ccccc54)ncnc32)CC1O (stereo not given) + CC(CO)NC(=O)c1cc(-c2ccc(Cl)cc2)nn(-c2cnn(C)c2)c1=O | 0.205 | 0.193 | 0.15 | 0.139 | 0.11 | 102 | 76.7 | 33.5 | 11 | 4.62 | 1.34 | 91.8 | 76.7 | 29.4 | 89.9 | 65.1 | 78.3 | 61.1 | 63.5 | 53.2 | viability, T/C [10]: 10.7%; viability, T/C [11]: 3.18%; viability, T/C [12]: 0.98%; viability, T/C [15]: 22.1%; viability, T/C [16]: 8.96%; viability, T/C [17]: 3.1%; viability, T/C [18]: 1.27%; viability, T/C [21]: 22.9%; viability, T/C [22]: 7.89%; viability, T/C [23]: 2.24%; viability, T/C [24]: 1.06%; viability, T/C [27]: 22%; viability, T/C [28]: 8.3%; viability, T/C [29]: 2.58%; viability, T/C [30]: 1.14%
4 | O=C(C=Cc1cccc(S(=O)(=O)Nc2ccccc2)c1)NO + CC(CO)NC(=O)c1cc(-c2ccc(Cl)cc2)nn(-c2cnn(C)c2)c1=O | 0.324 | 0.347 | 0.285 | 0.248 | 0.164 | 101 | 94.5 | 50.5 | 9.56 | 1.99 | 0.31 | 92.5 | 83.8 | 54.3 | 86.1 | 80.5 | 91.5 | 77.7 | 70.2 | 58.5 | viability, T/C [10]: 10.1%; viability, T/C [11]: 2%; viability, T/C [12]: 0.32%; viability, T/C [15]: 46.7%; viability, T/C [16]: 10.7%; viability, T/C [17]: 1.43%; viability, T/C [18]: 0.32%; viability, T/C [21]: 43.4%; viability, T/C [22]: 8.38%; viability, T/C [23]: 1.57%; viability, T/C [24]: 0.28%; viability, T/C [27]: 37.2%; viability, T/C [28]: 6.55%; viability, T/C [29]: 1.99%; viability, T/C [30]: 0.42%

Reference: PubChem BioAssay AID1918991 (Molecular Pharmacology Branch, DTP, NCI, 2023)
